From patent US12083124B2 (Incyte Corporation, priority 2019, dated 2024)
pIC50: −log10 of the molar value. Where two headings read alike, the source gives them in different places.

Tests used:
[1] = biological target: wild-type un-phosphorylated FGFR4 (Homo sapiens, UniProt P22455); assay: FGFR Enzymatic Assay (FRET peptide phosphorylation), FGFR4
Procedure: (§1) The inhibitor potency of the exemplified compounds was determined in an enzyme discontinuous assay that measures peptide phosphorylation using FRET measurements to detect product formation. Inhibitors were serially diluted in DMSO and a volume of 0.2 μL was transferred to the wells of a 384-well plate. […] Appropriate controls (enzyme blank and enzyme with no inhibitor) were included on the plate. […] The 10 μL/well reaction concentration of the peptide substrate was 500 nM whereas the ATP concentration was maintained near or below the ATP Km. The ATP Km values were pre-determined in a separate series of experiments. The reaction plate was incubated at 25° C. for 1 hr and the reactions were ended with the addition of 5 μL/well of quench solution (50 mM Tris, 150 mM NaCl, 0.5 mg/mL BSA, pH 7.8; 45 mM EDTA, 600 nM staurosporin, with Perkin Elmer Lance Reagents at 3.75 nM Eu-antibody PY20 and 180 nM APC-Streptavidin). The plate was allowed to equilibrate for ˜10 minutes at ambient temperature before scanning on a PheraStar plate reader (BMG Labtech) instrument.
(§2) Either GraphPad prism or XLfit was used to analyze the data. The IC50 values were derived by fitting the data to a four parameter logistic equation producing a sigmoidal dose-response curve with a variable Hill coefficient. Prism equation: Y=Bottom+(Top-Bottom)/(1+10^((Log IC50-X)*Hill slope)); XLfit equation: Y=(A+((B−A)/(1+((X/C)^D)))) where X is the logarithm of inhibitor concentration and Y is the response.
(§3) GraphPad prism3 was used to analyze the data. The IC50 values were derived by fitting the data to the equation for a sigmoidal dose-response with a variable slope. Y=Bottom+(Top-Bottom)/(1+10^((Log IC50-X)*Hill Slope)) where X is the logarithm of concentration and Y is the response.
The data in Table 1 was measured in wild-type un-phosphorylated FGFR1, FGFR2, FGFR3, and FGFR4 proteins.

[2] = biological target: wild-type un-phosphorylated FGFR1 (Homo sapiens, UniProt P11362); assay: FGFR Enzymatic Assay (FRET peptide phosphorylation), FGFR1; conditions: FGFR1, wild-type un-phosphorylated FGFR1; pre-incubated for 4 hours
Sequence of wild-type un-phosphorylated FGFR1 (P11362 22-822): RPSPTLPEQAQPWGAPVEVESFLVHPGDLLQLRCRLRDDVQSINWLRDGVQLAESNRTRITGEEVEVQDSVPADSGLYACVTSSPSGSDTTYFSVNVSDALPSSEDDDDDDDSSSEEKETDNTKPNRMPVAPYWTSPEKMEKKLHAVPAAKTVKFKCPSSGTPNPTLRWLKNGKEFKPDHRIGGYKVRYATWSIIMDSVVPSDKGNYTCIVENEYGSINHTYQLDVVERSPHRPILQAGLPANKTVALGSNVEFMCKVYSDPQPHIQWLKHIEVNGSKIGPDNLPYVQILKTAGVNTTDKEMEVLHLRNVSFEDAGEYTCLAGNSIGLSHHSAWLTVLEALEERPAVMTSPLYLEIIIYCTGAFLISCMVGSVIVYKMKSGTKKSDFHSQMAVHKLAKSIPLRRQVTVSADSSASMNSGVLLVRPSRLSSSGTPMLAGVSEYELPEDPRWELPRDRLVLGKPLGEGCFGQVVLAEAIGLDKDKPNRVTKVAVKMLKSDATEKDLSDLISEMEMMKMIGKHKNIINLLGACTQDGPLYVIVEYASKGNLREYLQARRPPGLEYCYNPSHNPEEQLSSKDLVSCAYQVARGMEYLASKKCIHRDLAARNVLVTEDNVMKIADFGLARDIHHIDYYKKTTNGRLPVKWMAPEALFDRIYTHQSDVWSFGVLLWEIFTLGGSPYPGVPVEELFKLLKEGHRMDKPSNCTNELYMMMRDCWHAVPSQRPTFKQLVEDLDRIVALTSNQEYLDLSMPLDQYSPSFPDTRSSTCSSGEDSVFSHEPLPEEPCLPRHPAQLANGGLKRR

[3] = biological target: wild-type un-phosphorylated FGFR3 (Homo sapiens, UniProt P22607); assay: FGFR Enzymatic Assay (FRET peptide phosphorylation), FGFR3
Sequence of wild-type un-phosphorylated FGFR3 (P22607 23-806): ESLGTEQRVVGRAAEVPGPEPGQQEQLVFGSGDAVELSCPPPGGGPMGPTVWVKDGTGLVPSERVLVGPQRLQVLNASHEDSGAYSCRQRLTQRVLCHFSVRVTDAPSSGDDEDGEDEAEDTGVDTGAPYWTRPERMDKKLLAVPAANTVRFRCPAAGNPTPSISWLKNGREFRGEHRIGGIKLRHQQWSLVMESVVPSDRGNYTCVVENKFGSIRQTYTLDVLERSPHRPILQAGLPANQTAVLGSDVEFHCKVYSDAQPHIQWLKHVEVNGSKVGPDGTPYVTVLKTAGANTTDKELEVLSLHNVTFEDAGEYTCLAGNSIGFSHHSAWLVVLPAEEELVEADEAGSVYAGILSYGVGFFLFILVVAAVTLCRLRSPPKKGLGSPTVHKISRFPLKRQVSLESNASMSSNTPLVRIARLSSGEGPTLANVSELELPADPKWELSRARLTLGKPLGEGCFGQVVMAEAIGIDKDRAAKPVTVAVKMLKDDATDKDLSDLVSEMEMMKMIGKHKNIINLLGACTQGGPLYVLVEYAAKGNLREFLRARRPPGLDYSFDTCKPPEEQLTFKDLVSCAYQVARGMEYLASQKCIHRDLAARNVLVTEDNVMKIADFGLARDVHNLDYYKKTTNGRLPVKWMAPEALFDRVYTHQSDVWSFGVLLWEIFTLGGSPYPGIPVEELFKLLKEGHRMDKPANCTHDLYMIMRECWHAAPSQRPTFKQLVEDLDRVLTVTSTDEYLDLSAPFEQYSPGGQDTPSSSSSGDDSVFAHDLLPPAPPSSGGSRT
Procedure: as §1, §2, §3

[4] = biological target: wild-type un-phosphorylated FGFR2 (Homo sapiens, UniProt P21802); assay: FGFR Enzymatic Assay (FRET peptide phosphorylation), FGFR2
Sequence of wild-type un-phosphorylated FGFR2 (P21802 22-821): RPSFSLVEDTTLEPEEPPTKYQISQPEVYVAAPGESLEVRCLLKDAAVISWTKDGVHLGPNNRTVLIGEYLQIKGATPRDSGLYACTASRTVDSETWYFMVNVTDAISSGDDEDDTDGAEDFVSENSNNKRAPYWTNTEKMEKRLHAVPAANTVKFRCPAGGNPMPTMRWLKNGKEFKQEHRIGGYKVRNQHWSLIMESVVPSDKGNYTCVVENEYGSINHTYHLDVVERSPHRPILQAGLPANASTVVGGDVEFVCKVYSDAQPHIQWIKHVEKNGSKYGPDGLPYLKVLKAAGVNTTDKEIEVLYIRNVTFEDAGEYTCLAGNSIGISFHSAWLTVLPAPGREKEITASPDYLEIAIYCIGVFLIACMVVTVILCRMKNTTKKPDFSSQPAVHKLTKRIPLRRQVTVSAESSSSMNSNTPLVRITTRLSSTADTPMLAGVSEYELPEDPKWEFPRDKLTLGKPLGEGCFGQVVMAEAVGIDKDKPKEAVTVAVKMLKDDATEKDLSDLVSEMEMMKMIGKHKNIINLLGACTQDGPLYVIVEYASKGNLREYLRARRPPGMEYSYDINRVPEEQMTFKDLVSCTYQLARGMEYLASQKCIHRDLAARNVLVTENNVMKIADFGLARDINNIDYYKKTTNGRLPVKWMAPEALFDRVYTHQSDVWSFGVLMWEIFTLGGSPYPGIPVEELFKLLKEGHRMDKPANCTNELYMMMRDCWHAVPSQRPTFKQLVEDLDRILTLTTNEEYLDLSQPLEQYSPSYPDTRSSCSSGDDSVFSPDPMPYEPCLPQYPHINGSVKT

[5] = read-out: FGFR2, wild-type un-phosphorylated FGFR2, pre-incubated for 4 hours

Sequence of wild-type un-phosphorylated FGFR4 (P22455 22-802): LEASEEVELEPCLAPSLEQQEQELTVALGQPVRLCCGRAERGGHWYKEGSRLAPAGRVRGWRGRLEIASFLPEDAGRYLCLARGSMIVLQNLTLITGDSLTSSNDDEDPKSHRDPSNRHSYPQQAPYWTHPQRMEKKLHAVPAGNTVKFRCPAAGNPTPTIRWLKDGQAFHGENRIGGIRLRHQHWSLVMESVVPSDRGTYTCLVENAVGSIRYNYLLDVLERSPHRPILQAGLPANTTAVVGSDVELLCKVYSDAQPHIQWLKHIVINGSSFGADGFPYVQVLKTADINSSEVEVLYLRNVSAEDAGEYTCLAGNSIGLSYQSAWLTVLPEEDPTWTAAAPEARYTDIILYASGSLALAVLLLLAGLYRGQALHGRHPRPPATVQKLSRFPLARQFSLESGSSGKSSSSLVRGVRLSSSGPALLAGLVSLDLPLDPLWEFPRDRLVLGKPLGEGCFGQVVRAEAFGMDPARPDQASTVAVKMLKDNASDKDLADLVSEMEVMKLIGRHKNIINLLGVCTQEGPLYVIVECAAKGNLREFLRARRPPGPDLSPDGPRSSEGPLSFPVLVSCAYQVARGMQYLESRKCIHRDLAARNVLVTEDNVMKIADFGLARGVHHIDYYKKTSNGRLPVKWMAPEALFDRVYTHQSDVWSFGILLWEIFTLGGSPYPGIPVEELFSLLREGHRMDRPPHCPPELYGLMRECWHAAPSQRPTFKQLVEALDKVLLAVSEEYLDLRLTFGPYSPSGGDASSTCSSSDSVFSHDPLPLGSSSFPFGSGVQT

pIC50 [1]	pIC50 [2]	pIC50 [3]	pIC50 [4]	pIC50 [4, 5]	SMILES
< 7.00	7.00 to 7.40	> 8.22	> 8.22	–	COc1cc2[nH]nc(-c3cnn([C@H]4CC[C@H](O)CC4)c3)c2nc1-c1cccc2c1CCC2 [Example 33, (trans)-4-(4-(5-(2,3-Dihydro-1H-inden-4-yl)-6-methoxy-1H-pyrazolo[4,3-b]pyridin-3-yl)-1H-pyrazol-1-yl)cyclohexan-1-ol]
< 7.00	7.00 to 7.40	> 8.22	> 8.22	–	CNc1cc2[nH]nc(-c3cnn(C)c3)c2nc1-c1cccc(C)c1C [Example 34, 5-(2,3-Dimethylphenyl)-N-methyl-3-(1-methyl-1H-pyrazol-4-yl)-1H-pyrazolo[4,3-b]pyridin-6-amine]
< 7.00	7.00 to 7.40	> 8.22	–	7.40 to 8.22	Cn1cc(-c2n[nH]c3cc(CO)c(-c4cccc5c4CCC5)nc23)cn1 [Example 36, (5-(2,3-Dihydro-1H-inden-4-yl)-3-(1-methyl-1H-pyrazol-4-yl)-1H-pyrazolo[4,3-b]pyridin-6-yl)methanol]
< 7.00	< 7.00	> 8.22	–	7.40 to 8.22	Cc1cccc(-c2nc3c(-c4cnn(C)c4)n[nH]c3cc2CO)c1C [Example 38, (5-(2,3-Dimethylphenyl)-3-(1-methyl-1H-pyrazol-4-yl)-1H-pyrazolo[4,3-b]pyridin-6-yl)methanol]
< 7.00	< 7.00	> 8.22	–	7.40 to 8.22	Cc1cc2[nH]nc(-c3cnn(C)c3)c2nc1-c1cccc(C)c1C [Example 40, 5-(2,3-Dimethylphenyl)-6-methyl-3-(1-methyl-1H-pyrazol-4-yl)-1H-pyrazolo[4,3-b]pyridine]
7.00 to 7.40	7.00 to 7.40	> 8.22	> 8.22	–	COc1cc2[nH]nc(-c3ccc(N4CCN(C)CC4)nc3)c2nc1-c1cccc(C)c1C [Example 41, 5-(2,3-Dimethylphenyl)-6-methoxy-3-(6-(4-methylpiperazin-1-yl)pyridin-3-yl)-1H-pyrazolo[4,3-b]pyridine]
< 7.00	7.00 to 7.40	> 8.22	> 8.22	–	CCN1CCN(c2ccc(-c3n[nH]c4cc(OC)c(-c5cccc(C)c5C)nc34)cn2)CC1 [Example 42, 5-(2,3-Dimethylphenyl)-3-(6-(4-ethylpiperazin-1-yl)pyridin-3-yl)-6-methoxy-1H-pyrazolo[4,3-b]pyridine]
< 7.00	< 7.00	> 8.22	–	7.40 to 8.22	COc1cc2[nH]nc(-c3ccc(N4CCOCC4)nc3)c2nc1-c1cccc(C)c1C [Example 44, 4-(5-(5-(2,3-Dimethylphenyl)-6-methoxy-1H-pyrazolo[4,3-b]pyridin-3-yl)pyridin-2-yl)morpholine]
< 7.00	< 7.00	> 8.22	–	7.40 to 8.22	COc1cc2[nH]nc(-c3cnn(C4CN(C(=O)N(C)C)C4)c3)c2nc1-c1cccc(C)c1F [Example 52, 3-(4-(5-(2-Fluoro-3-methylphenyl)-6-methoxy-1H-pyrazolo[4,3-b]pyridin-3-yl)-1H-pyrazol-1-yl)-N,N-dimethylazetidine-1-carboxamide]
< 7.00	< 7.00	> 8.22	–	7.40 to 8.22	COc1cc2[nH]nc(-c3ccc(N4CCOCC4)nc3)c2nc1-c1cccc(CC#N)c1C [Example 56, 2-(3-(6-Methoxy-3-(6-morpholinopyridin-3-yl)-1H-pyrazolo[4,3-b]pyridin-5-yl)-2-methylphenyl)acetonitrile]
< 7.00	< 7.00	> 8.22	> 8.22	–	COc1cc2[nH]nc(-c3ccc(N4CCCC4)nc3)c2nc1-c1cccc2c1CCC2 [Example 57, 5-(2,3-Dihydro-1H-inden-4-yl)-6-methoxy-3-(6-(pyrrolidin-1-yl)pyridin-3-yl)-1H-pyrazolo[4,3-b]pyridine]
